Tested on: Acinetobacter baumannii strains
Assay: Antibiotic susceptibility test (CLSI disk diffusion test method, read per CLSI 2016); on antibiotic susceptibility S/I/R: key: ‘S’ means susceptible; ‘I’ means intermediate; ‘R’ means resistant; on antibiotic susceptibility class: key: ‘S’ means susceptible; ‘I’ means intermediate; ‘R’ means resistant; on susceptibility category (S/I/R): key: ‘S’ means susceptible; ‘I’ means intermediate; ‘R’ means resistant
Assay type: cell-based
Design: antibiotic susceptibility test value / susceptibility test value (number given before S/I/R) / antibiotic susceptibility value: unit not given here

colistin
antibiotic susceptibility class (host strain YMC14/01/C29): S | antibiotic susceptibility test value (host strain YMC14/01/C29): 0.5 | antibiotic susceptibility class (host strain YMC14/01/IP122): S | antibiotic susceptibility test value (host strain YMC14/01/IP122): 0.5 | antibiotic susceptibility class (host strain YMC14/01/L8): S | antibiotic susceptibility test value (host strain YMC14/01/L8): 0.5 | antibiotic susceptibility class (host strain YMC14/01/P31): S | antibiotic susceptibility test value (host strain YMC14/01/P31): 0.5 | antibiotic susceptibility class (host strain YMC14/01/P117): S | antibiotic susceptibility test value (host strain YMC14/01/P117): 0.5 | antibiotic susceptibility class (host strain YMC14/01/P224): S | antibiotic susceptibility test value (host strain YMC14/01/P224): 0.5 | antibiotic susceptibility class (host strain YMC14/01/P727): S | antibiotic susceptibility test value (host strain YMC14/01/P727): 0.5 | antibiotic susceptibility class (host strain YMC14/01/P728): S | antibiotic susceptibility test value (host strain YMC14/01/P728): 0.5 | antibiotic susceptibility class (host strain YMC14/01/R130): S | antibiotic susceptibility test value (host strain YMC14/01/R130): 0.5 | antibiotic susceptibility class (host strain YMC14/01/R160): S | antibiotic susceptibility test value (host strain YMC14/01/R160): 0.5 | antibiotic susceptibility class (host strain YMC14/01/R198): S | antibiotic susceptibility test value (host strain YMC14/01/R198): 0.5 | antibiotic susceptibility class (host strain YMC14/01/R257): S | antibiotic susceptibility test value (host strain YMC14/01/R257): 0.5 | antibiotic susceptibility class (host strain YMC14/01/R270): S | antibiotic susceptibility test value (host strain YMC14/01/R270): 0.5 | antibiotic susceptibility class (host strain YMC14/01/R324): S | antibiotic susceptibility test value (host strain YMC14/01/R324): 0.5 | antibiotic susceptibility class (host strain YMC14/01/R443): S | antibiotic susceptibility test value (host strain YMC14/01/R443): 0.5 | antibiotic susceptibility class (host strain YMC14/01/R451): S | antibiotic susceptibility test value (host strain YMC14/01/R451): 0.5 | antibiotic susceptibility class (host strain YMC14/01/R560): S | antibiotic susceptibility test value (host strain YMC14/01/R560): 0.5 | antibiotic susceptibility class (host strain YMC14/01/R617): S | antibiotic susceptibility test value (host strain YMC14/01/R617): 0.5 | antibiotic susceptibility class (host strain YMC14/01/R671): S | antibiotic susceptibility test value (host strain YMC14/01/R671): 0.5 | antibiotic susceptibility class (host strain YMC14/01/R732): S | antibiotic susceptibility test value (host strain YMC14/01/R732): 0.5 | antibiotic susceptibility class (host strain YMC14/01/R767): S | antibiotic susceptibility test value (host strain YMC14/01/R767): 0.5 | antibiotic susceptibility class (host strain YMC14/01/R904): S | antibiotic susceptibility test value (host strain YMC14/01/R904): 0.5 | antibiotic susceptibility class (host strain YMC14/01/R905): S | antibiotic susceptibility test value (host strain YMC14/01/R905): 0.5 | antibiotic susceptibility class (host strain YMC14/01/R921): S | antibiotic susceptibility test value (host strain YMC14/01/R921): 0.5 | antibiotic susceptibility class (host strain YMC14/01/R941): S | antibiotic susceptibility test value (host strain YMC14/01/R941): 0.5 | antibiotic susceptibility class (host strain YMC14/01/R958): S | antibiotic susceptibility test value (host strain YMC14/01/R958): 0.5 | antibiotic susceptibility class (host strain YMC14/01/R1006): S | antibiotic susceptibility test value (host strain YMC14/01/R1006): 0.5 | antibiotic susceptibility class (host strain YMC14/01/R1199): S | antibiotic susceptibility test value (host strain YMC14/01/R1199): 0.5 | antibiotic susceptibility class (host strain YMC14/01/R1659): S | antibiotic susceptibility test value (host strain YMC14/01/R1659): 0.5 | antibiotic susceptibility class (host strain YMC14/01/R1722): S | antibiotic susceptibility test value (host strain YMC14/01/R1722): 0.5 | antibiotic susceptibility class (host strain YMC14/01/R1752): S | antibiotic susceptibility test value (host strain YMC14/01/R1752): 0.5 | antibiotic susceptibility class (host strain YMC14/01/R2429): S | antibiotic susceptibility test value (host strain YMC14/01/R2429): 0.5 | antibiotic susceptibility class (host strain YMC14/01/R2572): S | antibiotic susceptibility test value (host strain YMC14/01/R2572): 0.5 | antibiotic susceptibility class (host strain YMC14/01/R2855): S | antibiotic susceptibility test value (host strain YMC14/01/R2855): 0.5 | antibiotic susceptibility class (host strain YMC14/01/R2945): S | antibiotic susceptibility test value (host strain YMC14/01/R2945): 0.5 | antibiotic susceptibility class (host strain YMC14/01/R3007): S | antibiotic susceptibility test value (host strain YMC14/01/R3007): 0.5 | antibiotic susceptibility class (host strain YMC14/01/R3129): S | antibiotic susceptibility test value (host strain YMC14/01/R3129): 0.5 | antibiotic susceptibility class (host strain YMC14/01/R3317): S | antibiotic susceptibility test value (host strain YMC14/01/R3317): 0.5 | antibiotic susceptibility class (host strain YMC14/01/R3474): S | antibiotic susceptibility test value (host strain YMC14/01/R3474): 0.5 | antibiotic susceptibility class (host strain YMC14/01/R3574): S | antibiotic susceptibility test value (host strain YMC14/01/R3574): 0.5 | antibiotic susceptibility class (host strain YMC14/01/U313): S | antibiotic susceptibility test value (host strain YMC14/01/U313): 0.5 | antibiotic susceptibility class (host strain YMC14/01/U318): S | antibiotic susceptibility test value (host strain YMC14/01/U318): 0.5 | antibiotic susceptibility class (host strain YMC14/02/L18): S | antibiotic susceptibility test value (host strain YMC14/02/L18): 0.5 | antibiotic susceptibility class (host strain YMC14/02/P47): S | antibiotic susceptibility test value (host strain YMC14/02/P47): 0.5 | antibiotic susceptibility class (host strain YMC14/02/R1860): S | antibiotic susceptibility test value (host strain YMC14/02/R1860): 0.5 | antibiotic susceptibility class (host strain YMC14/02/R2417): S | antibiotic susceptibility test value (host strain YMC14/02/R2417): 0.5 | antibiotic susceptibility class (host strain YMC14/02/R2599): S | antibiotic susceptibility test value (host strain YMC14/02/R2599): 0.5 | antibiotic susceptibility class (host strain YMC14/02/R2668): S | antibiotic susceptibility test value (host strain YMC14/02/R2668): 0.5 | antibiotic susceptibility class (host strain YMC14/02/R2758): S | antibiotic susceptibility test value (host strain YMC14/02/R2758): 0.5 | antibiotic susceptibility class (host strain YMC14/02/R2781): S | antibiotic susceptibility test value (host strain YMC14/02/R2781): 0.5 | antibiotic susceptibility class (host strain YMC14/02/R3106): S | antibiotic susceptibility test value (host strain YMC14/02/R3106): 0.5 | antibiotic susceptibility class (host strain YMC14/02/R3419): S | antibiotic susceptibility test value (host strain YMC14/02/R3419): 0.5 | antibiotic susceptibility class (host strain YMC14/02/U1607): S | antibiotic susceptibility test value (host strain YMC14/02/U1607): 0.5 | antibiotic susceptibility class (host strain YMC14/03/L9): S | antibiotic susceptibility test value (host strain YMC14/03/L9): 0.5 | antibiotic susceptibility class (host strain YMC14/03/P471): S | antibiotic susceptibility test value (host strain YMC14/03/P471): 0.5 | antibiotic susceptibility class (host strain YMC14/03/R122): S | antibiotic susceptibility test value (host strain YMC14/03/R122): 0.5 | antibiotic susceptibility class (host strain YMC14/03/R217): S | antibiotic susceptibility test value (host strain YMC14/03/R217): 0.5 | antibiotic susceptibility class (host strain YMC14/03/R380): S | antibiotic susceptibility test value (host strain YMC14/03/R380): 0.5 | antibiotic susceptibility class (host strain YMC14/03/R618): S | antibiotic susceptibility test value (host strain YMC14/03/R618): 0.5 | antibiotic susceptibility class (host strain YMC14/03/R2144): S | antibiotic susceptibility test value (host strain YMC14/03/R2144): 0.5 | antibiotic susceptibility class (host strain YMC14/03/U4616): S | antibiotic susceptibility test value (host strain YMC14/03/U4616): 0.5 | antibiotic susceptibility class (host strain YMC14/04/R1078): S | antibiotic susceptibility test value (host strain YMC14/04/R1078): 0.5 | antibiotic susceptibility class (host strain YMC14/04/R1080): S | antibiotic susceptibility test value (host strain YMC14/04/R1080): 0.5 | antibiotic susceptibility S/I/R (host strain YMC14/06/R2359): R | antibiotic susceptibility value (host strain YMC14/06/R2359): 16 | susceptibility category (S/I/R) (host strain YMC14/06/R2359): R | susceptibility test value (number given before S/I/R) (host strain YMC14/06/R2359): 16 | antibiotic susceptibility S/I/R (host strain YMC14/08/R1169): R | antibiotic susceptibility value (host strain YMC14/08/R1169): 16 | susceptibility category (S/I/R) (host strain YMC14/08/R1169): R | susceptibility test value (number given before S/I/R) (host strain YMC14/08/R1169): 16 | antibiotic susceptibility S/I/R (host strain YMC14/08/T90): R | antibiotic susceptibility value (host strain YMC14/08/T90): 16 | susceptibility category (S/I/R) (host strain YMC14/08/T90): R | susceptibility test value (number given before S/I/R) (host strain YMC14/08/T90): 16 | antibiotic susceptibility S/I/R (host strain YMC15/02/R436): R | antibiotic susceptibility value (host strain YMC15/02/R436): 8 | susceptibility category (S/I/R) (host strain YMC15/02/R436): R | susceptibility test value (number given before S/I/R) (host strain YMC15/02/R436): 8 | antibiotic susceptibility S/I/R (host strain YMC15/02/T28): R | antibiotic susceptibility value (host strain YMC15/02/T28): 16 | susceptibility category (S/I/R) (host strain YMC15/02/T28): R | susceptibility test value (number given before S/I/R) (host strain YMC15/02/T28): 16 | antibiotic susceptibility S/I/R (host strain YMC15/03/R1604): R | antibiotic susceptibility value (host strain YMC15/03/R1604): 16 | susceptibility category (S/I/R) (host strain YMC15/03/R1604): R | susceptibility test value (number given before S/I/R) (host strain YMC15/03/R1604): 16 | antibiotic susceptibility S/I/R (host strain YMC15/09/R1869): R | antibiotic susceptibility value (host strain YMC15/09/R1869): 16 | susceptibility category (S/I/R) (host strain YMC15/09/R1869): R | susceptibility test value (number given before S/I/R) (host strain YMC15/09/R1869): 16 | antibiotic susceptibility S/I/R (host strain YMC16/01/P11): S | antibiotic susceptibility value (host strain YMC16/01/P11): 0.5 | susceptibility category (S/I/R) (host strain YMC16/01/P11): S | susceptibility test value (number given before S/I/R) (host strain YMC16/01/P11): 0.5 | antibiotic susceptibility S/I/R (host strain YMC16/01/R123): S | antibiotic susceptibility value (host strain YMC16/01/R123): 0.5 | susceptibility category (S/I/R) (host strain YMC16/01/R123): S | susceptibility test value (number given before S/I/R) (host strain YMC16/01/R123): 0.5 | antibiotic susceptibility S/I/R (host strain YMC16/01/R198): S | antibiotic susceptibility value (host strain YMC16/01/R198): 0.5 | susceptibility category (S/I/R) (host strain YMC16/01/R198): S | susceptibility test value (number given before S/I/R) (host strain YMC16/01/R198): 0.5 | antibiotic susceptibility S/I/R (host strain YMC16/01/R353): S

Source: US20240000872A1, “NOVEL BACTERIOPHAGE THAT LYSES ACINETOBACTER GENUS BACTERIA HAVING RESISTANCE TO ANTIBIOTICS” (priority 2020, published 2024)
